# Measured values from US20020137929A1, “1 - (3-heterocyclylphenyl) isothiourea, -isourea, -guanidine and -amidine herbicidal agents” (Intellectual Property Department, BASF Aktiengesellschaft, priority 1998, published 2002).
# Assays:
# [1] = system: CHEAL (Lambsquarters, Common); assay: Postemergence herbicidal evaluation; format: in vivo, Chenopodium album; details: postemergence
# Method in brief: (§1)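 Visual 0-9 injury score (stand, vigor, malformation, size, chlorosis, appearance vs untreated) taken four to five weeks post-spray, averaged across repeat tests. Test plants about two weeks old; foliar spray of acetone/water (1:1) with 0.5% surfactant delivering ~0.0156-0.500 kg active/ha.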
# ABUTH (Velvetleaf) = assay: Postemergence herbicidal evaluation; format: in vivo, Abutilon theophrasti; details: postemergence
# Method in brief: as §1
# ORYSAT (Rice, Tebonnet) = assay: Postemergence herbicidal evaluation; format: in vivo, Oryza sativa, (L.) Tebonnet; details: postemergence
# Method in brief: as §1
# GALAP (Galium) = assay: Preemergence herbicidal evaluation; format: in vivo, Galium aparine; details: rated 4-5 weeks after treatment, rating scale 0-9
# Method in brief: (§2)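 Scores (0–9) reflect visual comparison with control plants for stand, vigor, malformation, size and chlorosis. Compound was applied to the soil after sowing, before emergence, as an aqueous acetone spray (about 0.0156–0.500 kg/ha), and cups were kept in a greenhouse for 4–5 weeks.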
# SETVI (Foxtail, Green) [2] = assay: Postemergence herbicidal evaluation; format: in vivo, Setaria viridis; details: postemergence
# Method in brief: as §1
# [3] = system: GLXMAW (Soybean, Williams); assay: Postemergence herbicidal evaluation; format: in vivo, Glycine max, (L.) Merr. cv Williams; details: postemergence
# Method in brief: as §1
# AMBEL (Ragweed, Common) = assay: Preemergence herbicidal evaluation; format: in vivo, Ambrosia artemisifolia; details: rated 4-5 weeks after treatment, rating scale 0-9
# Source text: Results of herbicide evaluation are expressed on a rating scale (0-9). The scale is based upon a visual observation of plant stand, vigor, malformation, size, chlorosis and overall plant appearance as compared with a control.
# The preemergence herbicidal activity of the test compounds of the present invention is exemplified by the following tests in which the seeds of a variety of monocotyledonous and dicotyledonous plants are separately mixed with potting soil and planted on top of approximately one inch of soil in separate pint cups. After planting, the cups are sprayed with the selected aqueous acetone solution containing test compound in sufficient quantity to provide the equivalent of about 0.0156 to 0.500 kg per hectare of test compound per cup. The treated cups are then placed on greenhouse benches, watered and cared for in accordance with conventional greenhouse procedures. From four to five weeks after treatment, the tests are terminated and each cup is examined and rated according to the rating system provided in Example 37.
# The compounds evaluated are reported by compound number given in Example 37.
# SETVI (Foxtail, Green) [4] = assay: Preemergence herbicidal evaluation; format: in vivo, Setaria viridis; details: rated 4-5 weeks after treatment, rating scale 0-9
# Method in brief: as §2
# [5] = system: TRZAWR (Wheat, Winter, cv Riband); assay: Postemergence herbicidal evaluation; format: in vivo, Triticum aestivum; details: postemergence
# Method in brief: as §1
# CYPIR (Rice Flatsedge) = assay: Preemergence weed control under flooded paddy conditions; format: in vivo, Cyperus iria; details: rated 3-4 weeks after treatment
# Method in brief: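 Silt loam, seeds in top 0.5 cm; flood held 1.5-3 cm; test cpd as acetone/water 50/50 into flood water, ~0.0313-0.500 kg/ha a.i.; greenhouse 3-4 wk; visual 0-9 score vs control.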
# ZEAMX (Corn, Field) = assay: Postemergence herbicidal evaluation; format: in vivo, Zea mays; details: postemergence
# Method in brief: as §1
smiles,measurement,setting,value
"Cc1ccc(CN2C(=O)CSC2=Nc2cc(-n3c(=O)cc(C(F)(F)F)n(C)c3=O)c(F)cc2Cl)cc1Cl [Compound 149, 3-{4-Chloro-5-{[3-(3-chloro-4-methylbenzyl)-4-oxo-2-thiazolidinylidene]amino}-2-fluorophenyl}-1-methyl-6-(trifluoromethyl)-2,4(1H,3H)-pyrimidinedione]",Herbicidal rating CHEAL,[1]; rate 0.0156 kg/ha,3.0
same,Herbicidal rating CHEAL,[1]; rate 0.0313 kg/ha,3.0
same,Herbicidal rating CHEAL,[1]; rate 0.0625 kg/ha,4.0
same,Herbicidal rating ABUTH,ABUTH (Velvetleaf); rate 0.0156 kg/ha,4.0
same,Herbicidal rating ABUTH,ABUTH (Velvetleaf); rate 0.0313 kg/ha,8.0
same,Herbicidal rating ABUTH,ABUTH (Velvetleaf); rate 0.0625 kg/ha,9.0
same,Herbicidal rating ORYSAT,"ORYSAT (Rice, Tebonnet); rate 0.0156 kg/ha",0.5
same,Herbicidal rating ORYSAT,"ORYSAT (Rice, Tebonnet); rate 0.0313 kg/ha",1.0
same,Herbicidal rating ORYSAT,"ORYSAT (Rice, Tebonnet); rate 0.0625 kg/ha",1.0
same,Preemergence herbicidal rating GALAP,GALAP (Galium); rate 0.1250 kg/ha,0.0
same,Preemergence herbicidal rating GALAP,GALAP (Galium); rate 0.2500 kg/ha,0.0
same,Herbicidal rating SETVI,"SETVI (Foxtail, Green) [2]; rate 0.0156 kg/ha",0.0
same,Herbicidal rating SETVI,"SETVI (Foxtail, Green) [2]; rate 0.0313 kg/ha",0.0
same,Herbicidal rating SETVI,"SETVI (Foxtail, Green) [2]; rate 0.0625 kg/ha",0.0
same,Herbicidal rating GLXMAW,[3]; rate 0.0156 kg/ha,4.0
same,Herbicidal rating GLXMAW,[3]; rate 0.0313 kg/ha,4.5
same,Herbicidal rating GLXMAW,[3]; rate 0.0625 kg/ha,4.5
same,Preemergence herbicidal rating AMBEL,"AMBEL (Ragweed, Common); rate 0.1250 kg/ha",0.0
same,Preemergence herbicidal rating AMBEL,"AMBEL (Ragweed, Common); rate 0.2500 kg/ha",0.0
same,Preemergence herbicidal rating SETVI,"SETVI (Foxtail, Green) [4]; rate 0.1250 kg/ha",0.0
same,Preemergence herbicidal rating SETVI,"SETVI (Foxtail, Green) [4]; rate 0.2500 kg/ha",0.0
same,Herbicidal rating TRZAWR,[5]; rate 0.0156 kg/ha,3.0
same,Herbicidal rating TRZAWR,[5]; rate 0.0313 kg/ha,3.5
same,Herbicidal rating TRZAWR,[5]; rate 0.0625 kg/ha,3.5
same,"herbicidal effect rating, CYPIR",CYPIR (Rice Flatsedge); 0.0313 kg/ha,3.0
same,"herbicidal effect rating, CYPIR",CYPIR (Rice Flatsedge); 0.0625 kg/ha,4.0
same,"herbicidal effect rating, CYPIR",CYPIR (Rice Flatsedge); 0.1250 kg/ha,7.0
same,"herbicidal effect rating, CYPIR",CYPIR (Rice Flatsedge); 0.2500 kg/ha,4.0
same,Herbicidal rating ZEAMX,"ZEAMX (Corn, Field); rate 0.0156 kg/ha",4.0
same,Herbicidal rating ZEAMX,"ZEAMX (Corn, Field); rate 0.0313 kg/ha",4.5
same,Herbicidal rating ZEAMX,"ZEAMX (Corn, Field); rate 0.0625 kg/ha",4.5
